Literature values in patent publication US20260102351A1, “LYOPHILIZED FORMULATION OF CROFELEMER AND METHODS OF TREATMENT USING THE SAME” (priority 2022, published 2026).

Conditions: human, in vivo

Crofelemer
absorption from the GI tract: little or no absorption
systemic bioavailability in humans: virtually no systemic bioavailability
tolerability: well tolerated
